Test results: US6552008B1, “Thrombopoietin mimetics” (SmithKline Beecham Corporation, priority 1999, dated 2003)
pEC50: −log10 of the molar value.

Target: T1, TPO receptor (Homo sapiens, UniProt P40238)
T1 construct: expressed in transfected cells; host or cells: murine BaF3 cells (TPO-responsive line)
T1 sequence (P40238 26-635): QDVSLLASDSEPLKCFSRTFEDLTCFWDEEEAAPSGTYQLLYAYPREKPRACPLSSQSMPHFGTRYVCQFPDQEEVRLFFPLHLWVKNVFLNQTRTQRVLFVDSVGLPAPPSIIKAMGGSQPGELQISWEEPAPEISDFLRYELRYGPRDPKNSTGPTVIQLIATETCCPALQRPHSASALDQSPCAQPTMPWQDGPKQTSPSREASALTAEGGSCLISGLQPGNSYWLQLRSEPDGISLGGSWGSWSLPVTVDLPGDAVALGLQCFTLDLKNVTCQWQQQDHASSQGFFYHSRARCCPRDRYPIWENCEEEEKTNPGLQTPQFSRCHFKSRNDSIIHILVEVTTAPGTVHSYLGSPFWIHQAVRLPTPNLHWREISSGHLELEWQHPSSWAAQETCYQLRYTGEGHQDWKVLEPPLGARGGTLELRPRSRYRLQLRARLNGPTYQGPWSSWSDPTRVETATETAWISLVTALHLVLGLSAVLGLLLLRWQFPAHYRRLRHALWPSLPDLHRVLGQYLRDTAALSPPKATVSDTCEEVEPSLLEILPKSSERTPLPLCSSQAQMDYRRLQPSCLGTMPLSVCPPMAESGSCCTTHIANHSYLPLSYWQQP
Assay: Luciferase assay in TPO-responsive BaF3 cell line
Format: cell-based, murine
Experimental: Compounds of the present invention were tested for potency as mimetics of the TPO receptor in a Luciferase assay such as described in Lamb, et al., Nucleic Acids Research 23: 3283-3289 (1995) and Seidel, et al., Proc. Natl. Acad. Sci., USA 92: 3041-3045 (1995) by substituting a TPO-responsive BaF3 cell line (Vigon et al. Proc. Natl. Acad. Sci. USA 1992, 89, 5640-5644) for the HepG2 cells utilized therein. The murine BaF3 cells express TPO receptors and closely match the pattern of STAT (signal transducers and activators of transcription) activation observed in primary murine and human bone marrow cells.

- pEC50 (TPO-responsive BaF3 cells): 6.14
- activity, % TPO (relative to TPO): 56 % TPO
SMILES: CC1=NN(c2ccc(C(=O)O)cc2)C(=O)C1N=NC1C(=O)N(c2ccc(C)c(C)c2)N=C1C (centres unmarked) [Example 1, 4-[1-(3,4-Dimethylphenyl)-3-methyl-4-(3-methyl-5-oxo-2-pyrazolin-4-ylazo)-5-oxo-2-pyrazolin-1-yl]benzoic Acid]
